In patent US10273233B2, “Inhibitors of influenza viruses replication” (Vertex Pharmaceuticals Incorporated, priority 2015, dated 2019):
Structures can show the parent of a compound that is named as a salt. Where two headings read alike, the source gives them in different places.

Key:
[1] = tested on: influenza A; assay: Influenza A mouse model, Compound (1) with or without oseltamivir; format: in vivo, Mice
Method: Referring to FIG. 32, the potential for a positive therapeutic interaction between Compound (1) and oseltamivir against influenza A was explored in the mouse model. Mice were challenged with influenza A and dosed with vehicle (10 mL/kg 0.5% MC) or Compound (1) at 1, 3, 10, or 30 mg/kg BID alone, or in combination with 10 mg/kg BID oseltamivir. Therapy was started 48 hours post influenza A infection and continued for 10 days. All of the vehicle-treated controls succumbed to disease by study day 8 (Table 21).

Structure (SMILES) | Final Form (SGF (pH --1.5), 5 min) | concentration, two-stage in vitro dissolution (SGF (pH --1.5), 5 min) | Final Form (SGF (pH --1.5), 15 min) | concentration, two-stage in vitro dissolution (SGF (pH --1.5), 15 min) | Final Form (SGF (pH --1.5), 30 min) | concentration, two-stage in vitro dissolution (SGF (pH --1.5), 30 min) | Final Form (SGF (pH --1.5), 60 min) | concentration, two-stage in vitro dissolution (SGF (pH --1.5), 60 min) | Final Form (SIF (no pH Adjustment), 75 min) | concentration, two-stage in vitro dissolution (SIF (no pH Adjustment), 75 min) | Final Form (SIF (no pH Adjustment), 90 min) | concentration, two-stage in vitro dissolution (SIF (no pH Adjustment), 90 min) | Final Form (SIF (pH --6.4), 105 min) | concentration, two-stage in vitro dissolution (SIF (pH --6.4), 105 min) | Final Form (SIF (pH --6.4), 120 min) | concentration, two-stage in vitro dissolution (SIF (pH --6.4), 120 min) | Final Form (SIF (pH --6.4), 150 min) | concentration, two-stage in vitro dissolution (SIF (pH --6.4), 150 min) | Final Form (SIF (pH --6.4), 180 min) | concentration, two-stage in vitro dissolution (SIF (pH --6.4), 180 min) | further results
CC(C)(C)[C@@H](CC(=O)O)Nc1nc(-c2c[nH]c3ncc(F)cc23)ncc1F [FF Lot 7] | H3 | 2.053 | H3 | 1.278 | H3 | 2.031 | H3 | 2.40 | H3 | 0.163 | H3 | 0.148 | H3 | 1.588 | H3 | 1.534 | H3 | 1.058 | H3 | 0.971 | Final Form (SIF (pH --6.4), 240 min): H3; concentration, two-stage in vitro dissolution (SIF (pH --6.4), 240 min): 1.497
CCOC(=O)C1=C[C@@H](OC(CC)CC)[C@H](NC(C)=O)[C@@H](N)C1 [Oseltamivir, oseltamivir, reference compound] | – | – | – | – | – | – | – | – | – | – | – | – | – | – | – | – | – | – | – | – | Percent Survival ([1]; Oseltamivir 10 mg/kg BID alone, started +48 hours after infection, 10 days): 0%; protection from mortality ([1]; administered alone: Compound (1) 1 mg/kg BID, oseltamivir 10 mg/kg): failed to protect mice from influenza infection
CC(C)(C)[C@@H](CC(=O)O)Nc1nc(-c2c[nH]c3ncc(F)cc23)ncc1F [H2SO4 Salt] | H2SO4 | 0.407 | H2SO4 | 0.407 | H2SO4 | 0.417 | H2SO4 | 0.399 | H2 | 0.242 | H2 | 0.236 | H2 | 1.373 | H2 | 1.284 | H2 | 0.396 | H2 | 0.652 | Final Form (SIF (pH --6.4), 240 min): H2; concentration, two-stage in vitro dissolution (SIF (pH --6.4), 240 min): 0.789
CC(C)(C)[C@@H](CC(=O)O)Nc1nc(-c2c[nH]c3ncc(F)cc23)ncc1F [HCl Salt] | Amorphous | 14.664 | Amorphous | 16.565 | Amorphous | 14.808 | Amorphous | 15.135 | H2 | 0.747 | H2 | 0.964 | H2 | 0.474 | H2 | 0.477 | H2 | 0.749 | H2 | 0.340 | Final Form (SIF (pH --6.4), 240 min): H2; concentration, two-stage in vitro dissolution (SIF (pH --6.4), 240 min): 0.395
